Results reported in patent US20250186391A1, “ORAL COMPLEMENT FACTOR D INHIBITORS” (BioCryst Pharmaceuticals, Inc., priority 2019, published 2025).

Molecular target: Factor D (Homo sapiens (Human), UniProt P00746)
Assay: Factor D esterolytic assay
Format: biochemical
Conditions: Z-Lys-SBzl substrate, 100 mM HEPES, 500 mM NaCl, pH 7.5, 10% DMSO; tested a minimum of three times; read-out: Measured Ki (IC50) Value for Compounds: IC50
Description: The IC50 value of a compound (i.e., the concentration of the compound that inhibits 50% of the enzymatic activity) was calculated according to the procedure reported in U.S. Pat. No. 6,653,340 B1, e.g., column 74 (incorporated by reference).
Specifically, the compounds were dissolved in a stock solution of DMSO at 10.0 or 100 mM. A portion of this stock solution was added to assay buffer in a final volume of 50 μL. Controls included buffer alone and enzyme solutions to which DMSO was added. Substrate was added to the reaction wells immediately or after incubation at room temperature. The reaction rates were measured spectrophotometrically by the generation of product at 405 nm for 600 sec. Background absorbance at 690 nm was measured and subtracted from the absorbance at 405 nm for each well.
The reaction rate for enzyme alone was compared to the rate of enzyme in the presence of inhibitor and the percent inhibition was calculated as shown below: […]
An established esterolytic assay for the measurement of Factor D activity and inhibition of Factor D activity was used (Kam, C. M.; McRae, B. J.; Harper, J. W.; Niemann, M. A.; Volanakis, J. E.; Powers, J. C. Human complement proteins D, C2, and B Active site mapping with peptide thioester substrates. J Biol. Chem. 1987, 262, 3444-3451). For this assay Z-Lys-SBzl, 1.29 mM (Kim, S.; Narayana, S. V. L; Volanakis, J. E. Mutational analysis of the substrate binding site of human complement Factor D. Biochemistry. 1994, 33, 14393-14399.) was used as the substrate for Factor D ([…]). Hydrolysis of this compound by Factor D liberated a free sulfhydryl group which is then reacted with 5,5′-dithiobis(2nitrobenzoic acid) producing an intense yellow color (Habeeb, A. F. S. A. Reaction of protein sulfhydryl groups with Ellman's Reagent. Methods in Enzymol. 1976, 25, 457-464.). The assays were performed in 96 well microtiter plates and rates of hydrolysis were monitored at 405 nm on a Biotek Synergy H1 plate reader. Hydrolysis rates were reported as change in mOD/min. The assay was conducted in 100 mM HEPES, 500 mM NaCl, pH 7.5 containing 10% DMSO in a final volume of 50 μL per well.
An IC50, a compound concentration which inhibits 50% of the enzymatic activity, was calculated. Compounds in the examples were tested a minimum of three times.

Factor D, sequence (P00746 26-253): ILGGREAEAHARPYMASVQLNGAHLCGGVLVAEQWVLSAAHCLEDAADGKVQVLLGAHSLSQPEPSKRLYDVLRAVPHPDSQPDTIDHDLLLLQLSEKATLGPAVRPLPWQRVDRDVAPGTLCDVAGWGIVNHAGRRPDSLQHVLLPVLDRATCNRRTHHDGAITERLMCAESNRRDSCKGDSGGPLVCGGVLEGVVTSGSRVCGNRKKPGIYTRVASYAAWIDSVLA

SMILES	IC50 [nM]
NCc1cccc(-c2ccc3occ(COc4cc(C(N)=O)ccc4CC(=O)O)c3c2)c1 [Compound 63c, 2-(2-((5-(3-(aminomethyl)phenyl)benzofuran-3-yl)methoxy)-4-carbamoylphenyl)acetic acid]	< 1000
NCc1cccc(-c2ccc3oc(C(=O)NC4CC4)c(COc4ccccc4CC(=O)O)c3c2)c1 [Compound 64h, 2-(2-((5-(3-(aminomethyl)phenyl)-2-(cyclopropylcarbamoyl)benzofuran-3-yl)methoxy)phenyl)acetic acid]	< 1000
NCc1cccc(-c2ccc3ncc(COc4ccccc4CC(=O)O)n3c2)c1 [Compound 65e, 2-(2-((6-(3-(aminomethyl)phenyl)imidazo[1,2-a]pyridin-3-yl)methoxy)phenyl)acetic acid]	< 1000
NCc1cccc(-c2ccc3cnn(Cc4ccccc4CC(=O)O)c3c2)c1 [Compound 67e, 2-(2-((6-(3-(aminomethyl)phenyl)-1H-indazol-1-yl)methyl)phenyl)acetic acid]	< 1000
Cc1cc2occ(COc3ccccc3CC(=O)O)c2cc1-c1cccc(CN)c1 [Compound 70f, 2-(2-((5-(3-(aminomethyl)phenyl)-6-methylbenzofuran-3-yl)methoxy)phenyl)acetic acid]	1000 to 10000
Cn1cc(-c2cc(-c3cccc(CN)c3)cc3c(COc4ccccc4CC(=O)O)coc23)cn1 [Compound 72h, 2-(2-((5-(3-(aminomethyl)phenyl)-7-(1-methyl-1H-pyrazol-4-yl)benzofuran-3-yl)methoxy)phenyl)acetic acid]	< 1000
Cn1nc(NC(=O)c2ccccc2CC(=O)O)c2cc(-c3cccc(CN)c3)ccc21 [Compound 74d, 2-(2-((5-(3-(aminomethyl)phenyl)-1-methyl-1H-indazol-3-yl)carbamoyl)phenyl)acetic acid]	< 1000
CC(C)(C)OC(=O)n1cc(COc2ccccc2CC(=O)O)c2cc(-c3cccc(CN)c3)ccc21 [Compound 75d, 2-(2-((5-(3-(aminomethyl)phenyl)-1-(tert-butoxycarbonyl)-1H-indol-3-yl)methoxy)phenyl)acetic acid]	< 1000
CC(C)(C)OC(=O)n1cc(Cc2cccc(CC(=O)O)c2O)c2cc(-c3cccc(CN)c3)ccc21 [Compound 75e, 2-(3-((5-(3-(aminomethyl)phenyl)-1-(tert-butoxycarbonyl)-1H-indol-3-yl)methyl)-2-hydroxyphenyl)acetic acid]	> 10000
NCc1cccc(-c2cc(OC[C@H]3CCCO3)c3occ(COc4ccccc4CC(=O)O)c3c2)c1 [Compound 76i, (R)-2-(2-((5-(3-(aminomethyl)phenyl)-7-((tetrahydrofuran-2-yl)methoxy)benzofuran-3-yl)methoxy)phenyl)acetic acid]	< 1000
CC(C)(C)OC(=O)Nc1ccc(CC(=O)O)c(OCc2coc3ccc(-c4cccc(CN)c4)cc23)c1 [Compound 83h, 2-(2-((5-(3-(aminomethyl)phenyl)benzofuran-3-yl)methoxy)-4-((tert-butoxycarbonyl)amino)phenyl)acetic acid]	< 1000
NCc1cccc(-c2cc(NCC3CC3)c3occ(COc4ccccc4CC(=O)O)c3c2)c1 [Compound 85c, 2-(2-((5-(3-(aminomethyl)phenyl)-7-((cyclopropylmethyl)amino)benzofuran-3-yl)methoxy)phenyl)acetic acid]	< 1000
CC(C)(C)OC(=O)c1oc2ccc(-c3cccc(CN)c3)cc2c1COc1ccccc1CC(=O)O [Compound 86b, 2-(2-((5-(3-(aminomethyl)phenyl)-2-(tert-butoxycarbonyl)benzofuran-3-yl)methoxy)phenyl)acetic acid]	< 1000
NCc1cccc(-c2cc(CN3CCC(F)(F)CC3)c3occ(COc4ccccc4CC(=O)O)c3c2)c1 [Compound 89e, 2-(2-((5-(3-(aminomethyl)phenyl)-7-((4,4-difluoropiperidin-1-yl)methyl)benzofuran-3-yl)methoxy)phenyl)acetic acid]	< 1000
CC(C)(C)OC(=O)Nc1cccc(CC(=O)O)c1OCc1coc2ccc(-c3cccc(CN)c3)cc12 [Compound 91a, 2-(2-((5-(3-(aminomethyl)phenyl)benzofuran-3-yl)methoxy)-3-((tert-butoxycarbonyl)amino)phenyl)acetic acid]	< 1000

Other lines, results leading:

IC50 [nM]	SMILES
< 1000	COc1ccc(CC(=O)O)c(OCc2c(C(=O)O)sc3ccc(-c4cccc(CN)c4)cc23)c1 [Compound 62c, 5-(3-(aminomethyl)phenyl)-3-((2-(carboxymethyl)-5-methoxyphenoxy)methyl)benzo[b]thiophene-2-carboxylic acid]
< 1000	Cc1ccc(S(=O)(=O)n2cc(COc3ccccc3CC(=O)O)c3cc(-c4cccc(CN)c4)ccc32)cc1 [Compound 66f, 2-(2-((5-(3-(aminomethyl)phenyl)-1-tosyl-1H-indol-3-yl)methoxy)phenyl)acetic acid]
< 1000	COc1ccc(CC(=O)O)c(OCc2coc3ccc(-c4ccnc(CN)c4)cc23)c1 [Compound 68e, 2-(2-((5-(2-(aminomethyl)pyridin-4-yl)benzofuran-3-yl)methoxy)-4-methoxyphenyl)acetic acid]
< 1000	COc1cc2occ(COc3ccccc3CC(=O)O)c2cc1-c1cccc(CN)c1 [Compound 69f, 2-(2-((5-(3-(aminomethyl)phenyl)-6-methoxybenzofuran-3-yl)methoxy)phenyl)acetic acid]
< 1000	COc1ccc(CC(=O)O)c(OCc2coc3ccc(-c4ccnc(CN)c4F)cc23)c1 [Compound 71d, 2-(2-((5-(2-(aminomethyl)-3-fluoropyridin-4-yl)benzofuran-3-yl)methoxy)-4-methoxyphenyl)acetic acid]
1000 to 10000	NCc1cccc(-c2ccc3occ(Cc4ccccc4CC(=O)O)c3c2)c1 [Compound 73f, 2-(2-((5-(3-(aminomethyl)phenyl)benzofuran-3-yl)methyl)phenyl)acetic acid]
> 10000	Cn1nc(Nc2ccccc2CC(=O)O)c2cc(-c3cccc(CN)c3)ccc21 [Compound 77d, 2-(2-((5-(3-(aminomethyl)phenyl)-1-methyl-1H-indazol-3-yl)amino)phenyl)acetic acid]
< 1000	NCc1cccc(-c2ccc3[nH]nc(C(=O)Nc4ccccc4CC(=O)O)c3c2)c1 [Compound 78e, 2-(2-(5-(3-(aminomethyl)phenyl)-1H-indazole-3-carboxamido)phenyl)acetic acid]
< 1000	NCc1cccc(-c2cc(CN3CCOCC3)c3occ(COc4ccccc4CC(=O)O)c3c2)c1 [Compound 79h, 2-(2-((5-(3-(aminomethyl)phenyl)-7-(morpholinomethyl)benzofuran-3-yl)methoxy)phenyl)acetic acid]
< 1000	NCc1cccc(-c2ccc3c(c2)c(COc2ccccc2CC(=O)O)nn3C2CCCCO2)c1 (stereo not shown) [Compound 80d, 2-(2-((5-(3-(aminomethyl)phenyl)-1-(tetrahydro-2H-pyran-2-yl)-1H-indazol-3-yl)methoxy)phenyl)acetic acid]
< 1000	NCc1cccc(-c2ccc3[nH]nc(COc4ccccc4CC(=O)O)c3c2)c1 [Compound 81a, 2-(2-((5-(3-(aminomethyl)phenyl)-1H-indazol-3-yl)methoxy)phenyl)acetic acid]
< 1000	CN(C)Cc1cc(-c2cccc(CN)c2)cc2c(COc3ccccc3CC(=O)O)coc12 [Compound 82e, 2-(2-((5-(3-(aminomethyl)phenyl)-7-((dimethylamino)methyl)benzofuran-3-yl)methoxy)phenyl)acetic acid]
< 1000	NCc1cccc(-c2ccc3occ(COc4cc(N)ccc4CC(=O)O)c3c2)c1 [Compound 84b, 2-(4-amino-2-((5-(3-(aminomethyl)phenyl)benzofuran-3-yl)methoxy)phenyl)acetic acid]
< 1000	NCc1cccc(-c2cc(N)c3oc(C(=O)O)c(COc4ccccc4CC(=O)O)c3c2)c1 [Compound 87c, 7-amino-5-(3-(aminomethyl)phenyl)-3-((2-(carboxymethyl)phenoxy)methyl)benzofuran-2-carboxylic acid]
< 1000	NCc1cccc(-c2ccc3onc(COc4ccccc4CC(=O)O)c3c2)c1 [Compound 88e, 2-(2-((5-(3-(aminomethyl)phenyl)benzo[d]isoxazol-3-yl)methoxy)phenyl)acetic acid]
< 1000	NCc1cccc(-c2ccc3occ(COc4c(N)cccc4CC(=O)O)c3c2)c1 [Compound 90h, 2-(3-amino-2-((5-(3-(aminomethyl)phenyl)benzofuran-3-yl)methoxy)phenyl)acetic acid]
